Experimental data as given in patent US20240217981A1, “CRYSTALLINE COMPOUND OF MUSCARINIC ACETYLCHOLINE M1 RECEPTOR ANTAGONISTS” (Pipeline Therapeutics, Inc., priority 2021, published 2024).
In brackets after ≈: the same amount, converted by molar mass. Where two headings read alike, the source gives them in different places.

Experiments:
human M1 receptor = target: T1, human M1 receptor (Homo sapiens, UniProt P11229); assay: In vitro functional assay of muscarinic acetylcholine receptor activity (aequorin calcium flux, reversal of acetylcholine EC50 response); assay type: cell-based
T1 sequence (P11229 1-460): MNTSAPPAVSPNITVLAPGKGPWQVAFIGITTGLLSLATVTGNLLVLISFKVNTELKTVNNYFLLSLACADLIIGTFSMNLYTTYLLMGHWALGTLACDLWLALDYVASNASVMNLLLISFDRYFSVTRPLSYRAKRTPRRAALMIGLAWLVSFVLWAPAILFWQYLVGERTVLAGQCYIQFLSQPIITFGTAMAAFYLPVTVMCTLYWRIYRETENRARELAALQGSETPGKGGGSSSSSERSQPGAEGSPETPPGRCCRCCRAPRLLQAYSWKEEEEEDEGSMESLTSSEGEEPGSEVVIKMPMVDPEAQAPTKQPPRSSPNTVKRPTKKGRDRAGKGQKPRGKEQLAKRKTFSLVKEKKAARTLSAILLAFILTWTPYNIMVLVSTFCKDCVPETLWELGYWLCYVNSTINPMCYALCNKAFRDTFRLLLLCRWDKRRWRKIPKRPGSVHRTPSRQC
Method: CHO-K1 cells stably expressing human M1 receptor with aequorin (Perkin Elmer) were grown in F12 media (Gibco) containing 10% FBS (ATCC), 0.4 mg/mL geneticin (Sigma-Aldrich) and 0.25 mg/mL Zeocin (Invitrogen). Cells were grown as per the manufacturer's protocol. For compound testing, cells were grown to confluency and detached gently with Accutase (Sigma-Aldrich) followed by centrifugation for 5 min at 150×g. Cells were then re-suspended in assay buffer (i.e. DMEM/F-12 HEPES without phenol red (Invitrogen) with 0.1% BSA (Sigma-Aldrich)) at a density of 5×10^6 cells/ml. Under sterile conditions, 5 μM coelenterazine (Invitrogen) was added to the cells, mixed, then incubated at room temperature protected from light, with gentle agitation, for 4 h.
Primary compound plates were prepared in 100% DMSO in opaque 96-well plates (VWR) and serially diluted in half log increments. Secondary compound plates were prepared at 3× concentration in assay buffer. […]
The compound and cells were incubated at room temperature for 30 min in the dark. Acetylcholine at the EC50 concentration was added and calcium flux measured using a FlexStation 3 (Molecular Devices). Sigmoidal dose-response curves were generated by measuring […] over 40 sec and calculating the area under the curve. […]

human M2 receptor = target: T2, human M2 receptor (Homo sapiens, UniProt P08172); assay: as above; assay type: cell-based; conditions: CHO-K1 cells expressing human M2 receptor with aequorin; acetylcholine at EC50
T2 sequence (P08172 1-466): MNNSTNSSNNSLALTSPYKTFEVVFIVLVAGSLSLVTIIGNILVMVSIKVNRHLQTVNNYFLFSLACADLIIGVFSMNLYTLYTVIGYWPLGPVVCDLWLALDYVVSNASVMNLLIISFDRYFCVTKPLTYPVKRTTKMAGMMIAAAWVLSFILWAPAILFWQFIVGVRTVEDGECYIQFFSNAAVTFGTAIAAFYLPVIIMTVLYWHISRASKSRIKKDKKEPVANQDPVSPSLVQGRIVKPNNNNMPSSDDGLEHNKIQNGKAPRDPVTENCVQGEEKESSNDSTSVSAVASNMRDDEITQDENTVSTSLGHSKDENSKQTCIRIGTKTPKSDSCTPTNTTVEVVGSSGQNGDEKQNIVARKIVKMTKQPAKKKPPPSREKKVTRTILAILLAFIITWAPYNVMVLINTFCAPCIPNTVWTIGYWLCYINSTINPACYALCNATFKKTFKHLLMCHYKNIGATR
Method: (§1) Primary compound plates were prepared in 100% DMSO in opaque 96-well plates (VWR) and serially diluted in half log increments. Secondary compound plates were prepared at 3× concentration in assay buffer. The compound (6-(3-(4,4-difluoro-4-(2-methoxypyridin-4-yl)butanoyl)-3,8-diazabicyclo[3.2.1]octan-8-yl)nicotinonitrile) was added to white, clear bottom tissue culture treated 96-well plates (Fisher Scientific). Coelenterazine-loaded cells were then added at 5×10^5 cells/well.
(§2) The compound and cells were incubated at room temperature for 30 min in the dark. Acetylcholine at the EC50 concentration was added and calcium flux measured using a FlexStation 3 (Molecular Devices). Sigmoidal dose-response curves were generated by measuring […] over 40 sec and calculating the area under the curve. Dose response curves and IC50 values were generated using Prism (GraphPad). The compound was tested at a final concentration range of […] in 0.10% DMSO.
(§3) CHO-K1 cells stably expressing human M2, M3 and M4 receptors, respectively, with aequorin (Perkin Elmer) were used to assess a test compound's ability to dose-dependently reverse the EC50 acetylcholine response. The IC50 of the compound was calculated from the dose response curve.

human M3 receptor = human M3 receptor (Homo sapiens, UniProt P20309); assay: as above; assay type: cell-based
Method: as §1, §2, §3

human M4 receptor = target: T3, human M4 receptor (Homo sapiens, UniProt P08173); assay: as above; assay type: cell-based
T3 sequence (P08173 1-479): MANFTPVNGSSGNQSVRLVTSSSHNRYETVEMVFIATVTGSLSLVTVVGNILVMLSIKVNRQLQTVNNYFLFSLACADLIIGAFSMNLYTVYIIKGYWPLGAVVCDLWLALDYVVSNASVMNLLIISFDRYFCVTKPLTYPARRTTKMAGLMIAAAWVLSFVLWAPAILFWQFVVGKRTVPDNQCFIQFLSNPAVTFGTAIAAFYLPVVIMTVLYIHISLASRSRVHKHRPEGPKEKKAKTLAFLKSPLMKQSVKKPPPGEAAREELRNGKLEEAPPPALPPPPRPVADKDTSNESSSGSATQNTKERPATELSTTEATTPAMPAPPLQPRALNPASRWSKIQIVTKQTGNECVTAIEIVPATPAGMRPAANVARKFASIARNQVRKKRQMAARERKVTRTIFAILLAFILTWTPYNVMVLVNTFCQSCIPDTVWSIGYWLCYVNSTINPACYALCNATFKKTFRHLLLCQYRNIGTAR
Method: as §1, §2, §3

[1] = Kinetic solubility evaluation; assay type: physicochemical; conditions: for solubility / solubility at 1 h / solubility at 4 h / solubility at 24 h: thermodynamic from solid; for FC (Form change): residual solid by XRPD; for solubility at 1 h / solubility at 4 h / solubility at 24 h: read-out: S (Solubility of freebase)
Method: In these experiments, about 20 mg of Freebase Type A was suspended in 4 mL of FaSSIF, FeSSIF, SGF and H2O, respectively. After rolling at 37° C. for 1 hr, 4 hrs and 24 hrs, the suspension was centrifuged and filtered through a 0.45 μm PTFE membrane. The residual solids were tested by XRPD and the supernatant was tested by HPLC and pH meter. Detailed procedure can be found in Table 15.

[2] = Physicochemical stability evaluation; conditions: for Form change: XRPD
Method: In these experiments, about 10 mg of Freebase Type A was stored at 25° C./60% RH, 40° C./75% RH for one week and 60° C./sealed for 24 hrs. After storage, the solids were tested by XRPD and HPLC.

[3] = Hygroscopicity evaluation by DVS test; assay type: physicochemical
Method: Hygroscopicity of Freebase Type A was evaluated by DVS test. […] For the minus weight change observed in the desorption curve, it might be related to sample loss or instrument fluctuation.

[4] = 25° C./60% RH, 40° C./75% RH for one week and 60° C./sealed for 24 hrs

Sequence of human M3 receptor (P20309 whole entry): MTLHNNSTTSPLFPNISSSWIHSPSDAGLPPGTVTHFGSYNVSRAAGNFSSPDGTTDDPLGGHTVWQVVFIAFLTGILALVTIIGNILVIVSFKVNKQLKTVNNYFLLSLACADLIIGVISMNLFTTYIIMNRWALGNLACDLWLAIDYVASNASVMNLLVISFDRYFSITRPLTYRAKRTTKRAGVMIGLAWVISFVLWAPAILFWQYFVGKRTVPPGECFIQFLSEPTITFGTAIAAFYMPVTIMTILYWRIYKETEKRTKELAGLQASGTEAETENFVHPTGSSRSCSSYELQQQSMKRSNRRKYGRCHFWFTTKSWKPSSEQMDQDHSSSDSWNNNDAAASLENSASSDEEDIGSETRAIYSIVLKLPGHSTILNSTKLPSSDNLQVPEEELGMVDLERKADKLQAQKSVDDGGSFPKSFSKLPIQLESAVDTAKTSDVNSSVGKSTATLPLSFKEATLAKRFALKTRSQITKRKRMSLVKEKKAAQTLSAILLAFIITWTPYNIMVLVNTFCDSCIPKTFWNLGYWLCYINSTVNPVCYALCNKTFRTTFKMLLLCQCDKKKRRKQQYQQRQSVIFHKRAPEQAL

## COc1cc(C(F)(F)CCC(=O)N2CC3CCC(C2)N3c2ccc(C#N)cn2)ccn1 [Compound, 6-(3-(4,4-difluoro-4-(2-methoxypyridin-4-yl)butanoyl)-3,8-diazabicyclo[3.2.1]octan-8-yl)nicotinonitrile]
Human M1 receptor
  IC50: < 0.01 µM
Human M2 receptor
  IC50: 1 to 10 µM
Human M3 receptor
  IC50: 0.1 to 1 µM
Human M4 receptor
  IC50: 0.1 to 1 µM
[1]; FaSSIF, FeSSIF, SGF and H2O, 37° C.
  solubility rank order of media, from high to low: SGF>FeSSIF>FaSSIF>H2O
[1]; XRPD, tested media, 1, 4, and 24 hrs
  form change after rolling in tested media: no form change was observed
[1]; pH 1.77, simulated gastric fluid, SGF, 37° C., over 1 hr, 4 hrs and 24 hrs, read-out: solubility in SGF
  solubility: ≤ 0.15 mg/mL
[1]; pH 6.95, water, H2O, 37° C., read-out: solubility in H2O
  solubility: 0.02 mg/mL (≈ 46.8 µM)
[1]; FaSSIF, 37° C., 1 hr
  FC (Form change): No
[1]; FaSSIF, 37° C., 4 hrs
  FC (Form change): No
[1]; FaSSIF, 37° C., 24 hrs
  FC (Form change): No
[1]; FeSSIF, 37° C., 1 hr
  FC (Form change): No
[1]; FeSSIF, 37° C., 4 hrs
  FC (Form change): No
[1]; FeSSIF, 37° C., 24 hrs
  FC (Form change): No
[1]; H2O, 37° C., 1 hr
  FC (Form change): No
[1]; H2O, 37° C., 4 hrs
  FC (Form change): No
[1]; H2O, 37° C., 24 hrs
  FC (Form change): No
[1]; SGF, 37° C., 1 hr
  FC (Form change): No
[1]; SGF, 37° C., 4 hrs
  FC (Form change): No
[1]; SGF, 37° C., 24 hrs
  FC (Form change): No
[1]; simulated gastric fluid, SGF (pH 1.77), 37° C., 1 hr
  solubility at 1 h: 0.14 mg/mL (≈ 328 µM)
[1]; simulated gastric fluid, SGF (pH 1.77), 37° C., 4 hrs
  solubility at 4 h: 0.15 mg/mL (≈ 351 µM)
[1]; simulated gastric fluid, SGF (pH 1.77), 37° C., 24 hrs
  solubility at 24 h: 0.14 mg/mL (≈ 328 µM)
[1]; FaSSIF (pH 6.47), 37° C., 1 hr
  solubility at 1 h: 0.03 mg/mL (≈ 70.2 µM)
[1]; FaSSIF (pH 6.47), 37° C., 4 hrs
  solubility at 4 h: 0.03 mg/mL (≈ 70.2 µM)
[1]; FaSSIF (pH 6.47), 37° C., 24 hrs
  solubility at 24 h: 0.03 mg/mL (≈ 70.2 µM)
[1]; FeSSIF (pH 4.99), 37° C., 1 hr
  solubility at 1 h: 0.06 mg/mL (≈ 140 µM)
[1]; FeSSIF (pH 4.99), 37° C., 4 hrs
  solubility at 4 h: 0.06 mg/mL (≈ 140 µM)
[1]; FeSSIF (pH 4.99), 37° C., 24 hrs
  solubility at 24 h: 0.06 mg/mL (≈ 140 µM)
[1]; water, H2O (pH 6.95), 37° C., 1 hr
  solubility at 1 h: 0.02 mg/mL (≈ 46.8 µM)
[1]; water, H2O (pH 6.95), 37° C., 4 hrs
  solubility at 4 h: 0.02 mg/mL (≈ 46.8 µM)
[1]; water, H2O (pH 6.95), 37° C., 24 hrs
  solubility at 24 h: 0.02 mg/mL (≈ 46.8 µM)
[2]; 25° C./60% RH, 1 w
  HPLC purity Of initial: 100.00%
  HPLC purity after storage: 100.00 area %
  Form change: No
[2]; [4]
  form change after storage (XRPD): no form change was observed
  purity decrease after storage (HPLC): no purity decrease was detected
[2]; 40° C./75% RH, 1 w
  HPLC purity Of initial: 100.00%
  HPLC purity after storage: 100.00 area %
  Form change: No
[2]; 60° C./sealed, 24 hrs
  HPLC purity Of initial: 100.00%
  HPLC purity after storage: 100.00 area %
  Form change: No
[3]; 80% RH/25° C., sorption cycle from 0% RH to 95% RH
  water uptake: 0.01%
[3]; DVS test
  hygroscopicity: non-hygroscopic
[3]; XRPD
  form change after the DVS test: no form change was observed
